Test results taken from patent US9504676B2, “Molecules inhibiting a metabolic pathway involving the Syk protein tyrosine kinase and method for identifying said molecules” (CENTRE NATIONAL DE LA RECHERCHE SCIENTIFIQUE, priority 2008, dated 2016).

Tested on: PLC-γ with LAT
Assay: Association of PLC-γ with LAT (immunoprecipitation)
Type: cell-based, rat
Conditions: dose-dependent
Protocol: Binding of Btk and Vav with SLP-76 is critical for regulating PLC-γ activity on the membrane, calcium mobilisation and granule exocytosis^27, 28.
• 1) Chemical products and antibodies. A chemical bank of 3000 molecules (a varied subset) was acquired from ChemBridge, Inc. (San Diego, Calif.). Stocks of solutions of small molecules were prepared at a rate of 10 mM in DMSO (dimethylsulphoxide), except for C-13 (methyl 2-{5-[(3-benzyl-4-oxo-2-thioxo-1,3-thiazolidin-5-ylidene)methyl]-2-furyl}benzoate, ChemBridge ID No. 6197026) prepared in DMF (dimethylformamide). Unless specified otherwise, all the reagents were supplied by Sigma. Dinitrophenyl (DNP) hapten was acquired from Calbiochem. […] The binding of G4G11 with Syk was assessed by adding the 9E10 monoclonal antibody conjugated with HRP detecting the amino acid sequence EQKLISEEDLN of human c-myc protein located at the C-terminal end of the scFv fragment. To generate Syk mutants, targeted mutagenesis was used on GST:Syk 6-242 protein and the binding of G4G11 with the mutants was assessed in the presence of 5 μM of C-13. • 3) Cells, culture conditions and functional tests. […] The level of β-hexosaminidase released was measured 10 min later and the TNF-α titration was performed by means of a cytotoxicity test on L929 cells as described previously^10, 3 hours after stimulation. […]

COC(=O)c1ccccc1-c1ccc(/C=C2/SC(=S)N(Cc3ccccc3)C2=O)o1 [Molecule C-13, methyl 2-{5-[(3-benzyl-4-oxo-2-thioxo-1,3-thiazolidin-5-ylidene)methyl]-2-furyl}benzoate]
association of PLC-γ with LAT: inhibited
